{
  "source": "paper PMC9863657",
  "about": "“A Tailored Strategy to Crosslink the Aspartate Transcarbamoylase Domain of the Multienzymatic Protein CAD” (Molecules, 2023)",
  "key": {"[1]": {"target": "T1, ctATC (ATC domain of C. thermophilum CAD-like protein) (Thermochaetoides thermophila, UniProt G0S583, N2045C/R2238C)", "T1 construct": "gene CTHT_0032600; isolated ATC domain aa 1939-2253; N-terminal His6-MBP cut with PreScission; E. coli BL21(DE3) pLysS; homotrimer, 119 kDa by SEC (ctATC2Cys, similar to WT)", "T1 sequence (G0S583 entry or part of it N2045C/R2238C)": "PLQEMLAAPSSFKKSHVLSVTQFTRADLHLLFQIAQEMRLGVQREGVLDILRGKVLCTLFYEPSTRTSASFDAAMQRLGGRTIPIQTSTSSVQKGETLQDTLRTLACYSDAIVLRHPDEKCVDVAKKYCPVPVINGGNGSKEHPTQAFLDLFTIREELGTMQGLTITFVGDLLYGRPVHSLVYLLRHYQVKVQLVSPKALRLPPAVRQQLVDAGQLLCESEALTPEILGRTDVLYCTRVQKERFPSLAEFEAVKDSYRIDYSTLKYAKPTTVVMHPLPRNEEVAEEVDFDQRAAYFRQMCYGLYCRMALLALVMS", "test": "colorimetric carbamoyl aspartate assay", "type": "biochemical", "conditions": "5 mM CP; 50 mM Tris-acetate pH 8.3; 25 °C; 0.1 µM enzyme; substrate inhibition model; range printed jointly for WT and double mutant; disulfide-crosslinked trimer; read-out: S0.5^Asp"}, "[2]": {"target": "T2, ctATC (ATC domain of C. thermophilum CAD-like protein) (Thermochaetoides thermophila, UniProt G0S583)", "T2 construct": "gene CTHT_0032600; isolated ATC domain aa 1939-2253; N-terminal His6-MBP cut with PreScission; E. coli BL21(DE3) pLysS; homotrimer, 119 kDa by SEC (ctATC2Cys, similar to WT)", "T2 sequence (G0S583 entry or part of it)": "as the sequence (G0S583 entry or part of it N2045C/R2238C) above, with C107N, C300R counted along it", "test": "colorimetric carbamoyl aspartate assay", "type": "biochemical", "conditions": "5 mM CP; 50 mM Tris-acetate pH 8.3; 25 °C; 0.1 µM enzyme; substrate inhibition model; range printed jointly for WT and double mutant; read-out: S0.5^Asp"}, "[3]": {"target": "full-length C. thermophilum CAD-like protein (Chaetomium thermophilum)", "test": "not stated; unpublished results: recombinant full-length protein isolated as hexameric particles"}, "[4]": {"target": "T2, ctATC (ATC domain of C. thermophilum CAD-like protein)", "test": "differential scanning fluorimetry", "type": "binding", "conditions": "1 mM PALA; 5 µM protein; pH 7.0; Tm without PALA 53.9 °C; transition state analog"}, "[5]": {"target": "T1, ctATC (ATC domain of C. thermophilum CAD-like protein)", "test": "differential scanning fluorimetry", "type": "binding", "conditions": "1 mM PALA; 5 µM protein; pH 7.0; disulfide-crosslinked trimer; Tm without PALA 73.5 °C; transition state analog"}, "[6]": {"target": "ATC domain of C. thermophilum CAD-like protein with mutations N2045C and R2238C (ctATC2Cys) (Chaetomium thermophilum)", "test": "crystal structure; crystals of ctATC2Cys free and with 2 mM carbamoyl phosphate (CP), space group P4(3)32, one subunit per asymmetric unit"}, "[7]": {"target": "ATC domain of C. thermophilum CAD-like protein with mutations N2045C and R2238C (ctATC2Cys) (Chaetomium thermophilum)", "test": "SEC; Superdex 200 10/300 GL in 20 mM Tris-HCl pH 8.0, 150 mM NaCl, room temperature; molecular weight estimated from calibration with standards"}},
  "data": [
    {"compound": "N[C@@H](CC(=O)O)C(=O)O", "note": "[Asp, aspartate]", "values": [
      {"measurement": "Km", "setting": "[1]", "value": "1500 to 2000", "unit": "µM"},
      {"measurement": "Km", "setting": "[2]", "value": "1500 to 2000", "unit": "µM"}
    ]},
    {"compound": "full-length C. thermophilum CAD-like protein (natural protein)", "values": [
      {"measurement": "stoichiometry N", "setting": "[3]", "value": 6}
    ]},
    {"compound": "O=C(O)C[C@H](NC(=O)CP(=O)(O)O)C(=O)O", "note": "[PALA]", "values": [
      {"measurement": "Tm", "setting": "[4]", "value": "~ 90 °C"},
      {"measurement": "Tm", "setting": "[5]", "value": "~ 90 °C"}
    ]},
    {"compound": "ATC domain of C. thermophilum CAD-like protein with mutations N2045C and R2238C (ctATC2Cys) (domain or fragment)", "values": [
      {"measurement": "stoichiometry N", "setting": "[6]", "value": 3},
      {"measurement": "stoichiometry N", "setting": "[7]", "value": 3}
    ]}
  ]
}
